Entries after “also recorded” stand apart in the source; their conditions may differ. Like-named read-outs stand apart in the source and are kept apart here.
Experiments:
hop female plant = details: spraying 500 ppm (Non Patent Literature 1); cited from earlier work
[1] = tested on: hop variety Kirin No. 2 (female plant); assay: Forming a male flower on a female plant bred in a greenhouse (Part 3), different chemicals
Method: An over-wintering plant or strain of the hop variety “Kirin No. 2” was cultivated in the same manner as in Example 2.
Silver thiosulfate (STS) was prepared by mixing sodium thiosulfate pentahydrate and silver nitrate in a molar ratio of 8:1. An area to which water was applied was arranged as a control area.
Flower buds were observed from the beginning of July and the sexuality was determined from the mid-July.

[2] = tested on: female plant of Momordica dioica; details: Non Patent Literature 7; cited from earlier work
Cannabis sativa = details: cited from earlier work

Molecule: CC(Sc1ccccc1Cl)C(=O)[O-].[Na+] (stereo not drawn) [α (2-chlorophenylthio)propionic acid, sodium salt]
- flower formed on hop female plant (hop female plant): a male flower was formed

Molecule: O=[N+]([O-])[O-].[Ag+] [silver nitrate]
- flower sexuality observed ([1]; 8 mM, leaf application 4 times about every 10 days, greenhouse): the female flowers were predominantly observed but the male flowers were observed in part; also recorded: female flowers and male flowers
- flower sexuality observed ([1]; 16 mM, leaf application 4 times about every 10 days, greenhouse): male flowers were observed; also recorded: male flowers formed
- flower sexuality observed ([1]; 32 mM, leaf application 4 times about every 10 days, greenhouse): male flowers were observed; also recorded: male flowers formed
- condition of applied leaves and growth ([1]; all treated areas (all concentrations applied), greenhouse): the applied leaves were partially browned but continued growing
- flower formed on female plant [2]: a hermaphrodite flower is formed
- flowers formed on main and lateral branches (Cannabis sativa; applied to a growing shoot tip (Non Patent Literature 8)): an intersex flower, an incomplete male flower with few stamens or a complete male flower, together with female flowers, were formed

Molecule: silver thiosulfate complex [STS]
- condition of applied leaves and growth ([1]; in vivo): the applied leaves were partially browned but continued growing
- flower sexuality observed ([1]; in vivo): the female flowers were predominantly observed but the male flowers were observed in part; also recorded: male flowers formed; also recorded: female flowers and male flowers
- flowers formed on main and lateral branches (Cannabis sativa; in vivo): an intersex flower, an incomplete male flower with few stamens or a complete male flower, together with female flowers, were formed

Reference: US9737077B2, “Method for controlling sexuality of hop” (priority 2011, dated 2017)
